Assay results reported in PubChem BioAssay AID330 (DTP/NCI, 2004).
“And” between values parts separate entries of the source, which are not always exact repeats. Identical values can stand only once. Toxic doses and inconclusive results are not listed.

Test system: P388 leukemia ip, CD2F1 mice, survival T/C
Assay: NCI In Vivo Anticancer Drug Screen. Data for tumor model P388 Leukemia (intraperitoneal) in CD2F1 (CDF1) mice
Settings: endpoint: median survival time, higher = longer survival
Outline: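 Mice carrying the transplanted tumor received test compound or vehicle. Survival was recorded in each group, and the value is the treated-group measurement divided by that of the vehicle-treated control group.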

[1] = dose: 100.0 mg/kg/injection, schedule: Q04DX003 (ip), vehicle: saline
[2] = dose: 200.0 mg/kg/injection, schedule: Q04DX003 (ip), vehicle: saline
[3] = dose: 400.0 mg/kg/injection, schedule: Q04DX003 (ip), vehicle: saline
[4] = dose: 50.0 mg/kg/injection, schedule: Q01DX009 (ip), vehicle: saline with Tween-80
[5] = dose: 100.0 mg/kg/injection, schedule: Q01DX009 (ip), vehicle: saline with Tween-80
[6] = dose: 200.0 mg/kg/injection, schedule: Q01DX009 (ip), vehicle: saline with Tween-80
[7] = dose: 50.0 mg/kg/injection, schedule: Q01DX009 (ip), vehicle: Klucel (hydroxypropylcellulose) (HPC)
[8] = dose: 100.0 mg/kg/injection, schedule: Q01DX009 (ip), vehicle: Klucel (hydroxypropylcellulose) (HPC)
[9] = dose: 200.0 mg/kg/injection, schedule: Q01DX009 (ip), vehicle: Klucel (hydroxypropylcellulose) (HPC)
[10] = dose: 100.0 mg/kg/injection, schedule: Q01DX001 (ip), vehicle: saline with Tween-80
[11] = dose: 200.0 mg/kg/injection, schedule: Q01DX001 (ip), vehicle: saline with Tween-80
[12] = dose: 400.0 mg/kg/injection, schedule: Q01DX001 (ip), vehicle: saline with Tween-80

CCCCCCCCCCCCN1C(=O)[N+](C)(C)N=C1[O-]
T/C [1]: 113 % of control | T/C [2]: 105 % of control | T/C [3]: 105 % of control

COSOC
T/C (dose: 7.5 mg/kg/injection, schedule: Q04DX003 (ip), vehicle: Klucel (hydroxypropylcellulose) (HPC)): 105 % of control | T/C (dose: 15.0 mg/kg/injection, schedule: Q04DX003 (ip), vehicle: Klucel (hydroxypropylcellulose) (HPC)): 104 % of control | T/C (dose: 30.0 mg/kg/injection, schedule: Q04DX003 (ip), vehicle: Klucel (hydroxypropylcellulose) (HPC)): 98 % of control

Nc1[nH]c(=O)ncc1C(=O)NC(CO)C(=O)O (stereo unspecified)
T/C (dose: 6.25 mg/kg/injection, schedule: Q01DX009 (ip), vehicle: saline with Tween-80): 90 % of control | T/C (dose: 12.5 mg/kg/injection, schedule: Q01DX009 (ip), vehicle: saline with Tween-80): 100 % of control | T/C (dose: 25.0 mg/kg/injection, schedule: Q01DX009 (ip), vehicle: saline with Tween-80): 95 % of control

CC=C(/C(=C/C)c1ccc(O)cc1)c1ccc(O)cc1
T/C (dose: 66.0 mg/kg/injection, schedule: Q01DX009 (ip), vehicle: saline with Tween-80): 120 % of control | T/C (dose: 100.0 mg/kg/injection, schedule: Q04DX003 (ip), vehicle: saline with Tween-80): 100 % of control | T/C (dose: 200.0 mg/kg/injection, schedule: Q04DX003 (ip), vehicle: saline with Tween-80): 100 % of control | T/C (dose: 400.0 mg/kg/injection, schedule: Q04DX003 (ip), vehicle: saline with Tween-80): 90 % of control

COC(=O)N1C(c2ccccc2)C=CC(c2ccccc2)N1C(=O)OC (stereo unspecified)
T/C (dose: 60.0 mg/kg/injection, schedule: Q01DX005 (ip), vehicle: Klucel (hydroxypropylcellulose) (HPC)): 103 % of control | T/C (dose: 120.0 mg/kg/injection, schedule: Q01DX005 (ip), vehicle: Klucel (hydroxypropylcellulose) (HPC)): 96 % of control | T/C (dose: 240.0 mg/kg/injection, schedule: Q01DX005 (ip), vehicle: Klucel (hydroxypropylcellulose) (HPC)): 96 % of control

C[N+]1=Nc2cccc3cccc(c23)[N-]1
T/C (dose: 50.0 mg/kg/injection, schedule: Q01DX001 (ip), vehicle: Klucel (hydroxypropylcellulose) (HPC)): 111 % of control | T/C (dose: 100.0 mg/kg/injection, schedule: Q01DX001 (ip), vehicle: Klucel (hydroxypropylcellulose) (HPC)): 102 % of control | T/C (dose: 200.0 mg/kg/injection, schedule: Q01DX001 (ip), vehicle: Klucel (hydroxypropylcellulose) (HPC)): 100 % of control

Cc1cccc(Cl)c1NC(=O)NCCCN1CCCCC1C (stereo unspecified)
T/C (dose: 60.0 mg/kg/injection, schedule: Q01DX005 (ip), vehicle: saline with Tween-80): 94 % of control | T/C (dose: 120.0 mg/kg/injection, schedule: Q01DX005 (ip), vehicle: saline with Tween-80): 87 % of control

COc1cccc2c1CCC(=O)C2C (stereo unspecified)
T/C (dose: 50.0 mg/kg/injection, schedule: Q01DX005 (ip), vehicle: Klucel (hydroxypropylcellulose) (HPC)): 107 % of control | T/C (dose: 100.0 mg/kg/injection, schedule: Q01DX005 (ip), vehicle: Klucel (hydroxypropylcellulose) (HPC)): 100 % of control | T/C (dose: 200.0 mg/kg/injection, schedule: Q01DX005 (ip), vehicle: Klucel (hydroxypropylcellulose) (HPC)): 104 % of control

CCOC(=O)NC(NC(=O)OCC)c1ccncc1
T/C [1]: 94 % of control | T/C [2]: 98 % of control | T/C [3]: 99 % of control

COc1ccc(CC2C(=O)NC(C)C(=O)N(C)C3Cc4ccc(cc4)Oc4cc(ccc4OC)CC(C(=O)NC(C)C(=O)NC(C)C(=O)N2C)N(C)C3=O)cc1 (stereo unspecified)
T/C (dose: 0.5 mg/kg/injection, schedule: Q01DX009 (ip), vehicle: none): 161 % of control | T/C (dose: 1.0 mg/kg/injection, schedule: Q01DX009 (ip), vehicle: none): 152 % of control | T/C (dose: 2.0 mg/kg/injection, schedule: Q01DX009 (ip), vehicle: none): 190 % of control

Cc1cccc(O)c1C(=O)OC(C)c1cccc2nc3c(C(=O)O)cccc3nc12 (stereo unspecified)
T/C (dose: 0.5 mg/kg/injection, schedule: Q01DX005 (ip), vehicle: DMSO): 108 % of control | T/C (dose: 1.0 mg/kg/injection, schedule: Q01DX005 (ip), vehicle: DMSO): 92 % of control | T/C (dose: 2.0 mg/kg/injection, schedule: Q01DX005 (ip), vehicle: DMSO): 100 % of control | T/C (dose: 4.0 mg/kg/injection, schedule: Q01DX005 (ip), vehicle: Klucel (hydroxypropylcellulose) (HPC)): 100 % of control | T/C (dose: 6.25 mg/kg/injection, schedule: Q01DX005 (ip), vehicle: DMSO): 119 % of control | T/C (dose: 8.0 mg/kg/injection, schedule: Q01DX005 (ip), vehicle: Klucel (hydroxypropylcellulose) (HPC)): 101 % of control | T/C (dose: 12.5 mg/kg/injection, schedule: Q01DX005 (ip), vehicle: DMSO): 114 % of control | T/C (dose: 16.0 mg/kg/injection, schedule: Q01DX005 (ip), vehicle: Klucel (hydroxypropylcellulose) (HPC)): 101 % of control | T/C (dose: 32.0 mg/kg/injection, schedule: Q01DX005 (ip), vehicle: Klucel (hydroxypropylcellulose) (HPC)): 87 % of control

N#CC(=O)Nc1cccc(Cl)c1
T/C (dose: 15.0 mg/kg/injection, schedule: Q01DX005 (ip), vehicle: saline with Tween-80): 107 % of control | T/C (dose: 30.0 mg/kg/injection, schedule: Q01DX005 (ip), vehicle: saline with Tween-80): 103 % of control

Cc1ncc(C(N)=O)c(N)n1
T/C [4]: 103 % of control | T/C [5]: 104 % of control | T/C [6]: 104 % of control

O=C(CCCCCCCCc1cccc2c1OCO2)c1c(O)cccc1O
T/C (dose: 2.0 mg/kg/injection, schedule: Q01DX009 (ip), vehicle: Klucel (hydroxypropylcellulose) (HPC)): 103 % of control | T/C (dose: 4.0 mg/kg/injection, schedule: Q01DX009 (ip), vehicle: Klucel (hydroxypropylcellulose) (HPC)): 95 % of control | T/C (dose: 8.0 mg/kg/injection, schedule: Q01DX009 (ip), vehicle: Klucel (hydroxypropylcellulose) (HPC)): 109 % of control | T/C (dose: 16.0 mg/kg/injection, schedule: Q01DX009 (ip), vehicle: Klucel (hydroxypropylcellulose) (HPC)): 105 % of control

COc1cccc(C(=O)N/N=C(\C#N)c2cccc(OC)c2)c1
T/C (dose: 50.0 mg/kg/injection, schedule: Q01DX005 (ip), vehicle: saline with Tween-80): 97 % of control | T/C (dose: 100.0 mg/kg/injection, schedule: Q01DX005 (ip), vehicle: saline with Tween-80): 94 % of control

CC(=O)c1c(OCC(O)CN2CCCCC2)ccc2c(C)cc(=O)oc12 (stereo unspecified)
T/C (dose: 100.0 mg/kg/injection, schedule: Q04DX002 (ip), vehicle: saline with Tween-80): 100 % of control | T/C (dose: 200.0 mg/kg/injection, schedule: Q04DX002 (ip), vehicle: saline with Tween-80): 101 % of control

O=C(NC(=O)C(F)(F)F)Nc1ccc(F)c(Cl)c1
T/C [4]: 96 % of control | T/C [5]: 105 % of control | T/C [6]: 104 % of control

CCOC(=O)C(=O)Nc1ccccc1
T/C [5]: 99 % of control | T/C [6]: 97 % of control | T/C (dose: 400.0 mg/kg/injection, schedule: Q01DX009 (ip), vehicle: saline with Tween-80): 99 % of control

Cc1c(NC(=S)Nc2ccccc2C(F)(F)F)c(=O)n(-c2ccccc2)n1C
T/C [7]: 92 % of control | T/C [8]: 96 % of control | T/C [9]: 100 % of control

Cn1c(=O)c2[nH]c(Cc3cccc(O)c3)nc2n(C)c1=O
T/C (dose: 25.0 mg/kg/injection, schedule: Q01DX009 (ip), vehicle: suspension in saline): 99 % of control | T/C (dose: 50.0 mg/kg/injection, schedule: Q01DX009 (ip), vehicle: suspension in saline): 96 % of control | T/C (dose: 100.0 mg/kg/injection, schedule: Q01DX009 (ip), vehicle: suspension in saline): 92 % of control and 93 % of control | T/C (dose: 200.0 mg/kg/injection, schedule: Q01DX009 (ip), vehicle: suspension in saline): 104 % of control | T/C (dose: 400.0 mg/kg/injection, schedule: Q01DX009 (ip), vehicle: suspension in saline): 91 % of control

Cc1cc(=O)n(-c2cc(C)c3cc(Cl)ccc3n2)[nH]1
T/C [10]: 93 % of control | T/C [11]: 94 % of control | T/C [12]: 104 % of control

O=C1Nc2ccc(Cl)cc2C(c2ccccc2)=NC1O (stereo unspecified)
T/C (dose: 12.5 mg/kg/injection, schedule: Q01DX009 (ip), vehicle: Klucel (hydroxypropylcellulose) (HPC)): 97 % of control | T/C (dose: 25.0 mg/kg/injection, schedule: Q01DX009 (ip), vehicle: Klucel (hydroxypropylcellulose) (HPC)): 97 % of control | T/C [7]: 108 % of control | T/C [8]: 89 % of control | T/C [9]: 111 % of control | T/C (dose: 400.0 mg/kg/injection, schedule: Q01DX009 (ip), vehicle: Klucel (hydroxypropylcellulose) (HPC)): 99 % of control

Cc1[nH]c2c(N)cccc2c1C
T/C [4]: 97 % of control | T/C [5]: 90 % of control | T/C [6]: 88 % of control

COc1ccc(N=Nc2c(-c3ccccc3)nn(C(=S)SC)c2-c2ccccc2)cc1
T/C [10]: 92 % of control | T/C [11]: 95 % of control | T/C [12]: 108 % of control
